Reference: US20020155172A1, “Methods and compounds for decreasing cell toxicity or death” (priority 2000, published 2002)
Peptide text beside a SMILES is read from it. * marks the point of attachment. Cbz = O=C(OCc1ccccc1)*; CH2F = FC*

Assays:
Type in all cases: cell-based
[1] = tested on: Q79 transiently transfected HeLa cells; assay: Cell protective effects by ATP depletion tests and luciferase activity analysis; details: 5 μM or 25μM of the test compound
Experimental: (§1) A high-throughput method for identifying compounds that decrease cell toxicity or death has been designed. In this method, cells were seeded at 2×10^5 cells in 100 mm dishes. The next day the plated cells were transiently transfected with a plasmid encoding an expanded polyglutamine repeat, for example, Q79. Three hours later, transfection efficiency was assessed. Plates containing cells having 10-20% transfection efficiency at this 3 hour time point were trypsinized and re-plated at 600 or at 1500 cells per well in 384 well plates with clear bottoms. After 6 hours, the candidate compounds were added to the multi-well plates. The cells were cultured for 48 hours and ATP levels were determined using an ATPLite™ kit. Data was then expressed in either arbitrary units, or as relative ratio of ATP levels in Q79 transfected cells in compound-treated relative to vehicle-treated samples.
The structures and ChemBridge library product numbers for the compounds that tested positively in the ATP depletion assays and luciferase assays are shown in FIGS. 14A-14L. In addition, derivatives of some of the identified compounds, as shown in FIGS. 14A-14F, were identified and tested for their cell protective effects, as assayed by ATP depletion tests and luciferase activity analysis after administration of Q79 transiently transfected HeLa cells with 5 μM or 25μM of the test compound. […]

[2] = tested on: HeLa cells expressing Q79 expanded polyglutamine repeats; assay: Cell death induced by TNF-α/CHX, Fas/CHX or H2O2; details: 100 μM, one hour before the inducing agent; cell death 48 hours later
Experimental: FIG. 5F is a graph of the effects of Congo red, ZVAD, or vehicle (NT) on cell death when the cells are induced to die by receptor mediated pathways (TNF-α/cycloheximide (CHX), Fas/cycloheximide (CHX)), or necrosis (hydrogen peroxide).
HeLa cells expressing Q79 expanded polyglutamine repeats were treated with 100 μM Congo red, or 100 μM ZVAD (a positive control) for one hour prior to the addition of the apoptosis-inducing agent, and cell death was determined 48 hours later. […] Finally we tested whether Congo red can inhibit apoptosis induced by overexpression of caspase-1, -8, or -11.

[3] = tested on: non-transfected HeLa cells; assay: Total cellular protein degradation; details: Congo red 100 μM, ZVAD 100 μM, MG132 10 μM; H3-tyrosine release, 0 to 180 minutes
Experimental: FIG. 8C is a graph of the effect of effect of Congo red, ZVAD, or the proteosome inhibitor MG132 on total cellular protein degradation in non-transfected HeLa cells.
To rule out the possibility that Congo red may have an effect on protein degradation in general, we tested the effect of Congo red on proteosome degradation. Rates of total cellular protein degradation experiments, from cells seeded in 12 well dishes at 2×10^4, treated with Congo red (100 μM), ZVAD (100 μM), or the proteosome inhibitor MG132 (10 μM) and labeled with 5 μCi/ml of H^3-tyrosine for 1 hour. One hundred microliter culture medium aliquots were collected at 0, 30, 60, 90, 120, and 180 minute time points, and the levels of H^3-tyrosine were determined using an LS6000 scintillation counter (Beckman, Co).

[4] = tested on: HeLa cells transfected with Q79-GFP; assay: Cellular ATP levels (ATPLite) in Q79 expressing HeLa cells; details: Q79-GFP, assayed 48 hours after transfection
Experimental: We also investigated whether Congo red prevented other cellular events during cell death, including ATP depletion, caspase activation, and protein synthesis inhibition. HeLa cells were transfected with the Q79-GFP construct. Forty-eight hours later, the viability of cells expressing expanded polyglutamine repeats was determined by measuring cellular ATP levels, suing an ATPLite™ kit, according to the directions provided by the manufacturer (Packard, Co.) (FIG. 5A).
To determine the effect of Congo red (100 μM) on polyglutamine-induced cell toxicity. HeLa cells were transiently transfected with Q79-GFP, and six hours later were administered various concentrations of Congo red. Cell viability was assayed 72 hours after transfection, by measuring the level of ATP in each sample. ATP levels in cells expressing Q79 were determined by using the ATPLite™ kit as recommended by the manufacturer (Packard, Inc.). Briefly, cells were transfected with Q79 and treated 6 hours after transfection. Forty-two hours later, the levels of ATP were determined. (FIG. 5C).
as §1
Derivatives of Congo red (commercially available from Sigma/Aldrich) were tested for their ability to alter cell toxicity and death by measuring ATP depletion and luciferase expression. The assay was carried out as described above for the high-throughput identification of compounds. Briefly, HeLa cells were transiently transfected with a Q79/GFP plasmid and were subsequently treated with various concentrations of Congo red, or 25 μM of each of Direct Orange 6, Direct Red 1, Direct Orange 1, Direct Black 51, Direct Orange 8, Direct Yellow 26, Direct Yellow 28, or Direct Blue 158. Drug treatment continued for 6 hours and then 48 hours later, ATP levels were measured in these cells and compared to the ATP levels in cells that were transiently transfected with GFP only, and also received the compound.

| Compound | cell protective effect (ATP depletion tests and luciferase activity analysis) [1] | cell death induced by TNF-α/CHX, Fas/CHX, or H2O2 [2] | general protein degradation [3] | ATP depletion upon expanded polyglutamine expression [4] |
| --- | --- | --- | --- | --- |
| C/C(=N\NC(=S)N1CCCCC1)c1ccccc1 [PQIB] | cytoprotective |  |  |  |
| CC(=O)Nc1ccc(-c2ccc(NC(C)=O)cc2)cc1 [PQIG] | cytoprotective |  |  |  |
| COC(=O)C[C@H](NC(=O)[C@H](C)NC(=O)[C@@H](NC(=O)OCc1ccccc1)C(C)C)C(=O)CF [ZVAD, reference compound] (Cbz-Val-Ala-Asp(OMe)-CH2F) |  | effective in inhibiting both TNF-α- and Fas-induced apoptosis | neither Congo red nor ZVAD had any effect | inhibited |
